Experimental data as given in US20140142140A1, “PHARMACEUTICAL COMPOSITION FOR NEUROLOGICAL DISORDERS” (priority 2011, published 2014).

Columns and labels:
patients with PTSD [1] = details: cited from earlier work
[2] = tested on: patients with visual fatigue / impaired visual acuity; assay: Case reports, Visual fatigue / visual acuity (Example 5); assay type: in vivo, human; details: for three-dimensional delicate work (visual acuity and depth perception): Patient 5d
Source text: Adult with a history of ADHD stabilised on a combination of a psychostimulant and sodium valproate.
Adult diagnosed with ADHD and stable on treatment with psychostimulants. […] Previously always relied on glasses to read because of an astigmatism.
Adult previously diagnosed with ADHD and no longer taking stimulant medication.

[3] = tested on: patient with tardive dyskinsia; assay: Case report, Tardive Dyskinesia (Example 10); assay type: in vivo, human; details: Patient 10A; test dose of 1 mg
Source text: Patient 10A was an elderly person with a history of post-dramatic stress disorder treated with long-term antipsychotic medication.

[4] = tested on: patients with bipolar mood disorder; assay: Case report, Bipolar (Example 8); assay type: in vivo, human
[5] = tested on: patients with reading / learning difficulties; assay: Case reports, Reading Disorder (Example 2); assay type: in vivo, human
Source text: They noticed greater contrast when reading. This had reduced their dependency upon spectacles which they had relied on for many years. […] Patient described an unexpected improvement in the clarity and contrast of the words and letters, further commenting on the improvement in their ability to both see and comprehend the words simultaneously. Patient also described a reduction in the instability or movement of the words on the page which had always been experienced when reading. Also further commented on the subjective improvement in vision, with an apparent improved depth perception. […] Patient noticed greater contrast in the text when reading and this had reduced their dependency upon spectacles which they had relied on for many years. […] The patient has been able to sustain employment with considerable effort. Reading had always been effortful and largely unrewarding. Patient had described difficulties tracking along the text being frequently distracted by the lines above and below becoming lost on the page as well as having little recall or comprehension of what they had read.

[6] = tested on: patient with spina bifida, ADHD, learning difficulties; assay: Case report, Spina Bifida (Example 11); assay type: in vivo, human
[7] = tested on: patients with autism / ASD / communication disorder; assay: Case reports, Autism and other Pervasive Development Disorders (Example 6); assay type: in vivo, human; details: for communication, family relationships, behavioural disturbance: 1 mg daily increased to 3 mg in divided doses daily
Source text: Patient 6A: Adult, diagnosed in childhood with autism and ADHD. A long history of behavioural disturbance with frequent episodes of violence despite treatment with high-dose antipsychotic medication. […] The high-dose antipsychotic medication has been reduced without any associated loss of recent benefit. […] A history of behavioural disturbance and educational impairment. […] Patient 6C was an adult, diagnosed in childhood with autism and ADHD with a history of behavioural disturbance and educational impairment. […] Patient 6D: Adult, diagnosed in childhood with autism, ADHD and antisocial personality traits. […] Patient C's conversation became more appropriate and consistent together with reported improvements in significant relationships. […] Patient 6E was an adult, diagnosed with communication disorder and major depression. […] Patient 6F was an adult with ASD. […] The patient's conversation became more appropriate and consistent and improvements in significant relationships were reported. A reduction in the reliance on alcohol to alleviate anxiety in social situations was observed. […] Sodium valproate was withdrawn and improvement was noted. […] Patient 6G was as adult, diagnosed in childhood with ASD. […] Sodium valproate was withdrawn. […] This has also been associated with improvements in reading and verbal understanding. These benefits have been sustained in some situations for three years. Although difficult to be objective, there seems to be good evidence of ongoing improvement. […] Improvements in coordination, in fine and gross motor control have been reported and improvement in gait which frequently is a significant issue for individuals with autistic disorders.

patients with PTSD [8] = assay: Case reports, PTSD (Example 9); assay type: in vivo, human
Source text: Patient 9A: Two year history of PTSD & Major Depression, unable to work for nine months. […] Eight months specialist psychiatric treatment including specific PTSD therapy program. […] No history of premorbid ASD or ADHD, possible mild reading difficulties.
Patient 9B: 40 year history of severe PTSD associated with severe re-experiencing phenomena, absence of any family relationships and social withdrawal, anger outbursts, chronic sleep disturbance exaggerated startle reflex and hypervigilance. Comorbid conditions including chronic major depression, alcohol dependence. Attended regular psychiatric treatment for in excess of five years. Treated with a combination of regular outpatient psychotherapy and pharmacotherapy including antidepressants and antipsychotic medications.
Patient 9C: history of PTSD associated with chronic impairment in previous alcohol dependence. Previous psychiatric admissions as a consequence of condition. Long-term antidepressant therapy together with intermittent use of antipsychotic medication.

[9] = tested on: patients with Alzheimer's type dementia; assay: Case reports, Mild Cognitive Impairment (MCI) and Dementia (Example 1); assay type: in vivo, human
Source text: Patient 1A was an elderly person with history of impairment of cognitive function. Presumptive diagnosis of possible dementia of Alzheimers type.
Patient 1B was an elderly retired person with a 7 year history of Alzheimer's type dementia treated with the cholinesterase inhibitor Donepezil. […] Their cognitive function has gradually deteriorated since this time. […] Their reading was more fluent being better able to follow the meaning of the text. There was also improvement in their Stroop Test particularly in part three, the more cognitively demanding where their accuracy improved from 50 to 90%.

## O=C1NC(=O)C(c2ccccc2)(c2ccccc2)N1 [phenyloin, 5,5-diphenylhydantoin]
Patients with PTSD [1]; 300 mg per day in three doses, up to 400 mg/day, p<0.05
  increase in right brain volume: 6%
Patients with PTSD [1]; 300 to 400 mg/day
  improvements in memory and cognition: did not achieve statistical significance
[2]; Patient 5a, ADHD on psychostimulant and sodium valproate, 4 mg added
  overall functioning: further improvement in their overall functioning
[2]; Patient 5a, 4 mg added
  visual fatigue: visual fatigue no longer occurred
[2]; Patient 5b, ADHD on psychostimulants, 2 mg daily
  function: significant improvement in function
[2]; Patient 5b, 2 mg daily
  visual acuity: apparent improvement in their visual acuity
[2]; Patient 5c, 1 mg
  visual acuity whilst reading: immediate and unexpected improvement in visual acuity
[2]; Patient 5e, low dose
  judging distances when playing lawn bowls: improvement in their ability to accurately identify distances
[2]; Patient 5f, low dose
  visual judgement when playing soccer: improvement in visual judgement
[2]; 1 mg
  three-dimensional delicate work (visual acuity and depth perception): most consistent improvement
[2]; 2 mg
  three-dimensional delicate work (visual acuity and depth perception): improved
[3]
  abnormal facial movements: abnormal facial movements ceased
[4]; Patient 8A, bipolar mood disorder, compounded 2 mg capsule
  function: significant improvement in function
[4]; Patient 8A, 2 mg capsule
  improvements noted: enhanced organisation and planning • reduced effort required for social interaction • enhanced clarity of thought • a sense of being psychologically more normal
[4]; patients with bipolar spectrum disorders, much higher dose
  clinical effect of a much higher dose: good effect
[4]; some patients with bipolar mood disorder, very low dose added
  executive functioning: significant improvement in their executive functioning
[5]; Patient 2A, 1 mg daily
  visual acuity / contrast when reading: visual acuity had appeared to improve
[5]; Patient 2A
  benefits at a higher dose: not sustained at a higher dose
[5]; Patient 2B, 1 mg sub lingual dose
  reading, pseudo word component of WAIT: improved ability to read
[5]; Patient 2B, dose increased to 50 mg
  benefits at increased dose: beneficial effects were lost
[5]; Patient 2C, 1 mg daily
  visual acuity / contrast in the text when reading: visual acuity had appeared to improve
[5]; Patient 2C
  benefits at a higher dose: not sustained at a higher dose
[5]; Patient 2D, 0.5 mg dose
  ability to read: significant improvement in their ability to read with less effort
[6]; Patient 11A
  duration of sustained improvements: over 12 months
[6]; Patient 11A (on low dose methylphenidate), sublingual dose 1 mg
  social interaction, conversation, reading aloud, fine motor control and handwriting: significant improvement
[6]; Patient 11A, daily in two divided doses
  dose associated with optimal response: 1.5 mg
[6]; Patient 11A, dose increased to 2 mg
  efficacy after dose increase: loss of efficacy
[7]; Patient 6A, autism and ADHD, single test dose sublingual 1 mg
  social interaction and conversation: immediate improvement noted in their ability to socially interact and sustain limited conversation
[7]; Patient 6A, 4 mg sustained release daily
  social interaction, home and day respite centre: improvement was consistently noted
[7]; Patient 6A, withdrawal and recommencement
  behaviour after withdrawal: return of the behavioural disturbance which abated on recommencement
[7]; Patient 6B
  communication, family relationships, behavioural disturbance: sustained improvement in communication and family relationships together with a reduction in behavioural disturbance
  improvements at a higher dose or withdrawn: Improvements were lost
[7]; Patient 6C
  communication, family relationships, behavioural disturbance: sustained improvement in communication and family relationships together with a reduction in behavioural disturbance
  improvements at a higher dose or withdrawn: improvements were lost
[7]; Patient 6D, 2 mg daily
  behaviour, verbal and non-verbal communication: Significant improvement in behaviour, verbal and non-verbal communication
[7]; Patient 6D, 4 mg
  benefit of increased dose: No additional benefit
[7]; autistic spectrum and social communication disorders, Ultra low dose, frequently below 5 mg
  non-verbal and verbal communication: frequent instant improvement in both their non-verbal and verbal communication
[7]; low dose
  duration of sustained benefits in some situations: three years
[7]; ultra low dose
  symptoms of Social Communication Disorder: significant improvements in many patients
Patients with PTSD [8]; Patient 9A
  duration improvements maintained: over three months
Patients with PTSD [8]; Patient 9A, 2 mg daily
  time to reported improvements: ≤ 24 h
Patients with PTSD [8]; Patient 9A, dose reduced to 1 mg and increased to 4 mg
  efficacy after dose change: reduction in efficacy
Patients with PTSD [8]; Patient 9B, low dose
  overall improvement described: 50%
Patients with PTSD [8]; Patient 9C
  most stable and efficacious dose: 0.5 mg daily
Patients with PTSD [8]; Patient 9C, 0.5 mg daily
  stable improvements: reduction of intrusive and negative thoughts • Enhanced interpersonal communication • Reduced effort of reading • Enhanced quality of sleep
Patients with PTSD [8]; Patient 9C, 3 mg
  adverse effects: became irritable and experienced word finding difficulties
  intrusive thoughts, mood stability and concentration: initial improved ability to dismiss and ignore distressing, intrusive thoughts
Patients with PTSD [8]; Patient 9C, periods of complete withdrawal
  functioning during complete withdrawal: return to their pre-phenyloin functioning including a worsening of their symptoms of PTSD
Patients with PTSD [8]; patients with PTSD, Ultra low dose
  functional capacity and symptoms of PTSD: significant improvements in functional capacity as well as a reduction in the symptoms of PTSD
[9]; Patient 1A, possible dementia of Alzheimers type, 25 mg
  cognitive function, clinical response: some improvement but benefit was lost on continuation of this dose
[9]; Patient 1A, 3 mg daily
  duration of sustained benefit: over 24 months
[9]; Patient 1A, daily dose of 3 mg in divided doses orally
  cognitive function, clinical response: significant improvement
[9]; Patient 1A, withdrawal after 25 mg
  cognitive function after withdrawal of medication: transient improvement followed by a return to pre-phenyloin functioning
[9]; Patient 1B (treated with Donepezil), test dose 1 mg sublingual
  ability to read a standard text: significant improvement in their ability to read a standard text
[9]; Patient 1B, 1 mg sublingual
  time to improvement in reading after dose: ≤ 10 min
[9]; Patient 1B, 1 mg sublingual single dose
  functioning the following day after single dose: more able to initiate activities
[9]; Patient 1B, 1 mg sublingual, improved from 50
  Stroop Test part three accuracy after dose: 90%
